Where two headings read alike, the source gives them in different places.
What was measured:
CaV2.2 = molecular target: T1, CaV2.2 (Homo sapiens, UniProt Q00975); test: High-throughput CaV2.2/Kir2.3 FLIPR fluorescent assay; assay type: cell-based; conditions: Fluo-4 FLIPR, closed or inactivated state not stated, read-out: FLIPR data CaV2.2
T1 construct: expressed in transfected cells; host or cells: unnamed doxycycline-inducible cell line
Method in brief: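 IC50 was derived by logistic fitting of the FLIPR Fluo-4 signal recorded over 3 min after a 130 mM KCl stimulus. Before stimulation, cells (channel expression induced with doxycycline, 29 °C on assay day) were kept in pH 7.4 buffer with 2 mM KCl for the closed-state format or 12.5 mM KCl for the inactivated-state format.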

CaV3.2 = molecular target: T2, CaV3.2 (Homo sapiens, UniProt O95180); test: High-throughput CaV3.2/Kir2.3 T-type FLIPR fluorescent assay; assay type: cell-based; conditions: Fluo-4 FLIPR, closed or inactivated state not stated
T2 construct: expressed in transfected cells; host or cells: unnamed doxycycline-inducible cell line
T2 sequence (O95180 whole entry): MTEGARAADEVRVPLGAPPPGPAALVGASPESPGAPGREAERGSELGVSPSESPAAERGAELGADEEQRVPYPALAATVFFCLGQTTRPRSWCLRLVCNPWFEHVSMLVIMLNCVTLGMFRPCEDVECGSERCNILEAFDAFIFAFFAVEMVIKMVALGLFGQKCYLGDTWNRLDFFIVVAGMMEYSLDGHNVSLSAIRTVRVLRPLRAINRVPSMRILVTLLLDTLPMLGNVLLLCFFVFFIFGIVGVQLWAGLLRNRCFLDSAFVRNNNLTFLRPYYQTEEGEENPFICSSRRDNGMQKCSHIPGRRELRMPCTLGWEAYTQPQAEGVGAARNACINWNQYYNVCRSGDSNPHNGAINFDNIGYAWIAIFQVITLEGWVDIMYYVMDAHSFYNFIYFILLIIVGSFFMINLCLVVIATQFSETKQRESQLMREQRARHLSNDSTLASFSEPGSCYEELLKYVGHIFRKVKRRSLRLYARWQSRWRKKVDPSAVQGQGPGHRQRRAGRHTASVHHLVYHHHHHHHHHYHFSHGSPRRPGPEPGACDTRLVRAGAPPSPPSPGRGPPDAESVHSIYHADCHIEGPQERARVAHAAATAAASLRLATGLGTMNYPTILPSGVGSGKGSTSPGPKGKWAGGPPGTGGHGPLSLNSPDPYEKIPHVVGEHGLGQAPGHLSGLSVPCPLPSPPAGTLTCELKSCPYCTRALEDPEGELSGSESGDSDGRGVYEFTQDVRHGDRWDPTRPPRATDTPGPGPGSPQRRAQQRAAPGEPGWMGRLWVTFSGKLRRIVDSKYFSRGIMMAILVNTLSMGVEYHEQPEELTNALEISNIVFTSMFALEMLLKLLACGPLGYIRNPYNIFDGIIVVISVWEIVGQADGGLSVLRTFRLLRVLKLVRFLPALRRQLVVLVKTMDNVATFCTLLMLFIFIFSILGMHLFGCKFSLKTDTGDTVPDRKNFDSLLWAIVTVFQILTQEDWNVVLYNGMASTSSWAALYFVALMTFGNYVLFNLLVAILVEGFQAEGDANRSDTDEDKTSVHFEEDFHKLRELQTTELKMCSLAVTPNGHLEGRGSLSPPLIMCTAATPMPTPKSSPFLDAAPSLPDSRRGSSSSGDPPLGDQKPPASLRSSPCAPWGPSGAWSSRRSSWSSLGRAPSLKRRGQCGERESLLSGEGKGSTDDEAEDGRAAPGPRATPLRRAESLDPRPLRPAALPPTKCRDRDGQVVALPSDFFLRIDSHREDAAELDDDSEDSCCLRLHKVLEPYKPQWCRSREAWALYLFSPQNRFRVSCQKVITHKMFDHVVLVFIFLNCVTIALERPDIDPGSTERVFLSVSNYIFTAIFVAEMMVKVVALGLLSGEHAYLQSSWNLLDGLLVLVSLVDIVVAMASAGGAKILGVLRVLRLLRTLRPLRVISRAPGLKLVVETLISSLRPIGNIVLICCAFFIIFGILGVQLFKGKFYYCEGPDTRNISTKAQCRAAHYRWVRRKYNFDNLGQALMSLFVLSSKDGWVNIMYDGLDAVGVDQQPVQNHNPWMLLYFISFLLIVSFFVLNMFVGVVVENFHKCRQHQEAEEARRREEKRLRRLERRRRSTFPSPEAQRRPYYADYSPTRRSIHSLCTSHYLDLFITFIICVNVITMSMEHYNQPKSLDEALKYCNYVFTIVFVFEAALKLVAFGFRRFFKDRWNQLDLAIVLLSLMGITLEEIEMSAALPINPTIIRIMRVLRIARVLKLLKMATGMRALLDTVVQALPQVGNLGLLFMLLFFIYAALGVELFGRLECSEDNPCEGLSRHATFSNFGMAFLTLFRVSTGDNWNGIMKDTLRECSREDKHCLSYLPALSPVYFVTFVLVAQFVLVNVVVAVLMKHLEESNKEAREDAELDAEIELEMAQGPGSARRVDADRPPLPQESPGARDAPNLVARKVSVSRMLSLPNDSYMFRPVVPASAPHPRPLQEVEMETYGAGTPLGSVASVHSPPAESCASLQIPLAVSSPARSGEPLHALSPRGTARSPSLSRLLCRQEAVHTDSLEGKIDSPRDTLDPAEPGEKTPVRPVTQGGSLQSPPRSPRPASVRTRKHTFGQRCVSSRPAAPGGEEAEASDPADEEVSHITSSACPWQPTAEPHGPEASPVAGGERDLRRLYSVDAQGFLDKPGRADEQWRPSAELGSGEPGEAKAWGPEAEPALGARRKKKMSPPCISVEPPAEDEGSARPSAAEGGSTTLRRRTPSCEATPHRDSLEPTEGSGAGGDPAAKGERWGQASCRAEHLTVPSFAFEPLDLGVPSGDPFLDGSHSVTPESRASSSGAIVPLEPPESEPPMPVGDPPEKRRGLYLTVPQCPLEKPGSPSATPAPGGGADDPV
Protocol: Cells were plated in 384-well, clear-bottom, black-walled, poly-D-lysine coated plates (Becton Dickinson, Franklin Lake, N.J.) 2 days prior to use in the FLIPR assay. 100 µL of cells (1.2×10^6 cell/mL) containing doxycyline (Sigma-Aldrich, 1.5 μg/mL; to induce channel expression) were added to each well using a Multidrop (Thermo Scientific, Waltham, Mass.) and were maintained in 5% CO2 incubator at 37° C. On the morning of the assay, cells were transferred to a 5% CO2 incubator at 29° C.
Cells were washed with a wash buffer containing (in mM): 118 NaCl, 18.4 HEPES, 11.7 D-glucose, 2 CaCl2, 0.5 MgSO4, 4.7 KCl, and 1.2 KH2PO4, with the pH adjusted to 7.2 with
NaOH. 4.4 μM of the fluorescent indicator dye Fluo-4 (Invitrogen) prepared in pluronic acid (Sigma-Aldrich) was loaded into the wells and incubated for 45 minutes at 29° C. in 5% CO2. Cells were then rinsed with either a 2 mM KCl closed-state buffer (in mM: 138.5 NaCl, 10 HEPES, 10 D-glucose, 1 CaCl2, and 2 KCl, with the pH adjusted to 7.4 with NaOH) when performing the closed-state assay or 7.6 mM KCl inactivated-state buffer (in mM: 130.9 NaCl, 10 HEPES, 10 D-glucose, 1 CaCl2, and 7.6 mM KCl, with the pH adjusted to 7.4 with NaOH) when performing the inactivated-state assay. Concentration-dependent response curves were generated from 5 mM stock solutions prepared in DMSO (Sigma-Aldrich), diluted in either the 2 mM KCl buffer or 7.6 mM KCl buffer, and incubated for 20 minutes at 29° C. in 5% CO2. Calcium entry was evoked with an addition of either 12 mM KCl stimulation buffer (in mM: 128.5 NaCl, 10 HEPES, 10 D-glucose, 1 CaCl2, and 12 KCl, with the pH adjusted to 7.4 with NaOH) or 14.5 mM KCl stimulation buffer (in mM: 126 NaCl, 10 HEPES, 10 D-glucose, 1 CaCl2, and 14.5 KCl, with the pH adjusted to 7.4 with NaOH) for the closed-state or inactivated-state assay respectively. A change in the Fluo-4 fluorescence signal was assessed using FLIPR^TETRA™ instrument (Molecular Devices, Sunnyvale, Calif.) for 3 minutes following the elevation of extracellular KCl using an illumination wavelength of 470-495 nm with emissions recorded at 515-575 nm.
Concentration-dependent response curves were obtained by comparing the fluorescence signal in the presence of compound and fitted with a logistic function (1) to obtain the concentration that inhibited 50% (IC50) of the RLU signal using OriginPro v.7.5 software (OriginLab, Northampton, Mass.).
To assess the quality of the FLIPR assays the Z-factor (2) was used to quantify the suitability of the assay conditions using the following equation: […]
Data are expressed as mean and standard deviation (SD).

| SMILES | IC50 (CaV2.2; Table 4) | IC50 (CaV3.2; Table 4) | IC50 (CaV2.2; Table 5) | IC50 (CaV3.2; Table 5) |
| --- | --- | --- | --- | --- |
| O=C(NCc1ccc(S(=O)(=O)c2cccc(C(F)(F)F)c2)cn1)c1cnc(C(F)(F)F)nc1 [Compound 97, 2-(trifluoromethyl)-N-((5-((3-(trifluoromethyl)phenyl)sulfonyl)pyridin-2-yl)methyl)pyrimidine-5-carboxamide] | 1930 nM | 4170 nM | – | – |
| Cc1cc(Cl)ccc1C(=O)NCC(C)(C)S(=O)(=O)c1cccc(C(F)(F)F)c1 [Compound 168, 4-chloro-2-methyl-N-(2-methyl-2-((3-(trifluoromethyl)phenyl)sulfonyl)propyl)benzamide] | – | – | 1020 nM | 5160 nM |
| CC(C)(CCN1Cc2nc(C(F)(F)F)ccc2C1=O)S(=O)(=O)c1cccc(C(F)(F)F)c1 [Compound 188, 6-(3-methyl-3-((3-(trifluoromethyl)phenyl)sulfonyl)butyl)-2-(trifluoromethyl)-6,7-dihydro-5H-pyrolo[3,4-b]pyridine-5-one] | – | – | 420 nM | 5540 nM |
| CC(C)(CNC(=O)c1cncc(C(F)(F)F)c1)S(=O)(=O)c1cccc(C(F)(F)F)c1 [Compound 176, N-(2-methyl-2-((3-(trifluoromethyl)phenyl)sulfonyl)propyl)-5-(trifluoromethyl)nicotinamide] | – | – | 1310 nM | 5340 nM |
| O=C(NCc1ccc(S(=O)(=O)c2cccc(C(F)(F)F)c2)cn1)c1ccnc(C(F)(F)F)n1 [Compound 98, 2-(trifluoromethyl)-N-((5-((3-(trifluoromethyl)phenyl)sulfonyl)pyridin-2-yl)methyl)pyrimidine-4-carboxamide] | 1490 nM | 9160 nM | – | – |
| O=C(NCc1ccc(S(=O)(=O)c2cccc(C(F)(F)F)c2)cc1)[C@H]1CCCCN1 [Compound 80, (R)-N-(4-((3-(trifluoromethyl)phenyl)sulfonyl)benzyl)piperidine-2-carboxamide] | 770 nM | 8700 nM | – | – |
| CC(C)(C(=O)N1CCC(c2nc3ccccc3[nH]2)CC1)S(=O)(=O)c1cccc(C(F)(F)F)c1 [Compound 138, 1-(4-(1H-benzol[d]imidazol-2-yl)piperidin-1-yl)-2-methyl-2-((3-(trifluoromethyl)phenyl)sulfonyl)propan-1-one] | – | – | 1480 nM | 5100 nM |
| CC(C)(C(=O)NCc1cccnc1Oc1ccc(F)cc1)S(=O)(=O)c1cccc(C(F)(F)F)c1 [Compound 146, N-((2-(4-fluorophenoxy)pyridin-3-yl)methyl)-2-methyl-2-((3-(trifluoromethyl)phenyl)sulfonyl)propanamide] | – | – | 440 nM | 7210 nM |
| O=C(NCc1ccc(S(=O)(=O)c2cccc(C(F)(F)F)c2)cc1)[C@@H]1CCCCN1 [Compound 79, (S)-N-(4-((3-(trifluoromethyl)phenyl)sulfonyl)benzyl)piperidine-2-carboxamide] | 1450 nM | 8440 nM | – | – |
| O=C(CCC(F)(F)F)NCc1ccc(S(=O)(=O)c2cccc(C(F)(F)F)c2)cc1 [Compound 53, 4,4,4-trifluoro-N-(4-((3-(trifluoromethyl)phenyl)sulfonyl)benzyl)butanamide] | 340 nM | 4100 nM | – | – |
| O=C1c2ccc(C(F)(F)F)nc2CN1Cc1ccc(S(=O)(=O)c2cccc(C(F)(F)F)c2)cc1 [Compound 56, 2-(trifluoromethyl)-6-(4-((3-(trifluoromethyl)phenyl)sulfonyl)benzyl)-6,7-dihydro-5H-pyrrolo[3,4-b]pyridin-5-one] | 310 nM | 2660 nM | – | – |
| NC1(CC(=O)NCc2ccc(S(=O)(=O)c3cccc(C(F)(F)F)c3)cc2)CCCCC1 [Compound 86, 2-(1-aminocyclohexyl)-N-(4-((3-(trifluoromethyl)phenyl)sulfonyl)benzyl)acetamide] | 310 nM | 5500 nM | – | – |
| O=C(NCc1ccccc1S(=O)(=O)c1cccc(C(F)(F)F)c1)c1cn2cc(C(F)(F)F)ccc2n1 [Compound 51, 6-(trifluoromethyl)-N-(2-((3-(trifluoromethyl)phenyl)sulfonyl)benzyl)imidazo[1,2-a]pyridine-2-carboxamide] | 1230 nM | 1050 nM | – | – |
| COc1ccc(S(=O)(=O)N2CCOCC2)cc1C(=O)NCC(C)(C)S(=O)(=O)c1cccc(C(F)(F)F)c1 [Compound 166, 2-methoxy-N-(2-methyl-2-((3-(trifluoromethyl)phenyl)sulfonyl)propyl)-5-(morpholinosulfonyl)benzamide] | – | – | 1310 nM | 9680 nM |
| CC(C)Oc1cccnc1C(C)(C)NC(=O)C(C)(C)S(=O)(=O)c1cccc(C(F)(F)F)c1 [Compound 147, N-(2-(3-isopropoxypyridin-2-yl)propan-2-yl)-2-methyl-2-((3-(trifluoromethyl)phenyl)sulfonyl)propanamide] | – | – | 1390 nM | 3530 nM |
| NC1(C(=O)NCc2ccc(S(=O)(=O)c3cccc(C(F)(F)F)c3)cc2)CCOCC1 [Compound 60, 4-amino-N-(4-((3-(trifluoromethyl)phenyl)sulfonyl)benzyl)tetrahydro-2H-pyran-4-carboxamide] | 4230 nM | – | – | – |
| NC1(C(=O)NCc2ccc(S(=O)(=O)c3cccc(C(F)(F)F)c3)cc2)CCC1 [Compound 66, 1-amino-N-(4-((3-(trifluoromethyl)phenyl)sulfonyl)benzyl)cyclobutanecarboxamide] | 1930 nM | – | – | – |
| NC1(C(=O)NCc2ccc(S(=O)(=O)c3cccc(C(F)(F)F)c3)cc2)CC1 [Compound 65, 1-amino-N-(4-((3-(trifluoromethyl)phenyl)sulfonyl)benzyl)cyclopropanecarboxamide] | 5630 nM | – | – | – |
| CS(=O)(=O)c1nc(C(F)(F)F)ccc1C(=O)NCc1ccc(S(=O)(=O)c2cccc(C(F)(F)F)c2)cn1 [Compound 92, 2-(methylsulfonyl)-6-(trifluoromethyl)-N-((5-((3-(trifluoromethyl)phenyl)sulfonyl)pyridin-2-yl)methyl)nicotinamide] | 2330 nM | – | – | – |
| CC(C)(CCNC(=O)c1ccccc1S(C)(=O)=O)S(=O)(=O)c1cccc(C(F)(F)F)c1 [Compound 192, N-(3-methyl-3-((3-(trifluoromethyl)phenyl)sulfonyl)butyl)-2-(methylsulfonyl)benzamide] | – | – | 3040 nM | – |
| CC(C)(C(=O)Nc1ccc(Oc2ccncc2)cc1)S(=O)(=O)c1cccc(C(F)(F)F)c1 [Compound 143, 2-methyl-N-(4-(pyridin-4-yloxy)phenyl)-2-((3-(trifluoromethyl)phenyl)sulfonyl)propanamide] | – | – | 10000 nM | – |
| O=C(NCc1ccc(S(=O)(=O)c2cccc(C(F)(F)F)c2)cc1)[C@@H]1C[C@@H](F)CN1 [Compound 68, (2S,4R)-4-fluoro-N-(4-((3-(trifluoromethyl)phenyl)sulfonyl)benzyl)pyrrolidine-2-carboxamide] | 2300 nM | – | – | – |
| CC(C)(CCNC(=O)[C@H]1CCCN1)S(=O)(=O)c1cccc(C(F)(F)F)c1 [Compound 220, (R)-N-(3-methyl-3-((3-(trifluoromethyl)phenyl)sulfonyl)butyl)pyrrolidine-2-carboxamide] | – | – | 3430 nM | – |
| O=C(NCc1ccc(S(=O)(=O)c2cccc(C(F)(F)F)c2)cn1)c1ccnn1CC(F)(F)F [Compound 100, 1-(2,2,2-trifluoroethyl)-N-((5-((3-(trifluoromethyl)phenyl)sulfonyl)pyridin-2-yl)methyl)-1H-pyrazole-5-carboxamide] | 1320 nM | – | – | – |
| CC(C)(CN1Cc2nc(C(F)(F)F)ccc2C1=O)S(=O)(=O)c1cccc(C(F)(F)F)c1 [Compound 182, 6-(2-methyl-2-((3-(trifluoromethyl)phenyl)sulfonyl)propyl)-2-(trifluoromethyl)-6,7-dihydro-5H-pyrrolo[3,4-b]pyridin-5-one] | – | – | 10000 nM | – |

Source: patent publication US20140113898A1, “BISARYLSULFONE AND DIALKYLARYLSULFONE COMPOUNDS AS CALCIUM CHANNEL BLOCKERS” (Zalicus Pharmaceuticals Ltd., priority 2010, published 2014)
